“Also recorded” adds a separate entry of the source.
Columns and labels:
[1] = tested on: human foreskin fibrobalsts (FF1); test: Cell attachment assay in monolayers (peptide-coated Sepharose beads), FF1; assay type: cell-based; conditions: for cell binding activity at the lower dose (words): 6 mg peptide/ml compared with 12 mg/ml; for time to saturated attachment: Conclusions b109, concentration and cell type not stated; for Nomarsky optics microscopy of peptide coated beads attached to FF1 (observation): 3 days to 3 weeks of incubation; for activity in comparison with the positive control PreC-gamma: FIG. 3b, cell type not stated
Protocol: (§1) 100 mg of dried CNBr-Sepharose Beads (yields 350 μl of swollen Sepharose Beads—gel) was introduced into a disposable polystyrene mini-column (FIG. 1), appropriate for the preparation of a 0.5-2 ml gel filtration column (Pierce, Prod #29920). The lower part of the columns is blocked by a thick glass filter and a stopper.
(§2) 3-4 ml total volume of HCl solution (1 mM) was added to the column, and the liquid was forced to flow under vacuum pressure through the gel. This process was repeated 5 times. The final aliquot of HCl was aspirated until cracks appeared in the gel cake. 2-3 ml aliquots of coupling buffer were immediately added to the washed beads and aspirated. This step was repeated 4-5 times. The high pH hydrolyzes and opens the active groups.
(§3) A peptide solution in coupling buffer prepared as above was immediately added to the activated SEPHAROSE BEADS Sepharose beads were used to fixate the peptides for all in-vitro assays in the column to a final binding of 6 mg peptide per ml SEPHAROSE BEADS gel. The column was closed and shaken overnight at 4° C. very gently to avoid mechanical breakage of SEPHAROSE BEADS. The bottom cap of the column was removed and the solution of ligand/buffer was collected as the Sepharose Beads settled on the filter. The OD280 of the collected buffer was checked to determine the concentration of uncoupled peptide. The gel was washed/aspirated with 5 volumes (˜2 ml) of coupling buffer and gently mixed. Any remaining active groups on the gel were blocked with blocking buffer for 2 hours at room temperature or overnight at 4° C. The Sepharose Beads gel with peptides was then washed by 2 cycles each of 5 gel volumes of: • a. 0.1 M Acetate buffer • b. Coupling buffer • c. Storing buffer: azide-coupling buffer: coupling buffer containing 0.1% NaN3 (final concentration)
(§4) The tested peptides (Table 1) were coupled to Sepharose Beads at two concentrations: 6 and 12 mg/ml Sepharose Beads. Sepharose Beads that underwent the coupling procedure without peptide addition (“naked Sepharose Beads”) served as a negative control (referred to herein as “Sepharose Beads—blank”). A cell binding assay was performed with 2 normal cell types: bovine aortal endothelial cells (BAEC) and human foreskin fibrobalsts (FF1). Sepharose Beads were added to 12 well culture plates with sub-confluent monolayer of the cultured cells (100-300 beads were added to each well). The fraction of Sepharose Beads attached to the monolayer was monitored at different times.

[2] = tested on: bovine aortal endothelial cells (BAEC); test: Cell attachment assay in monolayers (peptide-coated Sepharose beads), BAEC; assay type: cell-based; conditions: for cell binding activity at the lower dose (words): BAEC monolayer, 6 mg peptide/ml compared with 12 mg/ml; for Nomarsky optics microscopy of peptide coated beads attached to BAEC (observation): 3 weeks of incubation; for overall activity at longer incubation times: microscopy, statement follows FF1 and BAEC paragraphs
Protocol: as §1, §2, §3, §4

[3] = tested on: BAEC; test: Toxicity assay for the peptides (MTS cell survival), BAEC; assay type: cell-based, bovine
Protocol: (§5) A toxicity assay was done to determine the toxicity of the peptides tested to either one of the cell lines used. 15×10^3 cells (FF1 or BAEC) were seeded in 96 well plastic plates. After an overnight incubation, increasing concentrations of peptides in the range of 0.1-300 μg/ml were added to the wells. Cell survival was checked by the MTS assay after 2 and 5 days and normalized to the cell number of the controls (no peptide).

[4] = tested on: FF1 in suspension; test: Cell attachment assay in cell suspensions (MTS assay); assay type: cell-based, human; conditions: followed over days
From the text: Attachment of FF1 in suspension to peptides bound to sepharose beads was followed using the MTS assay. The MTS assay uses tetrazolium, which is taken up by viable cells and converted into formazan, which has a light absorption peak at 492 nm. The light absorbance at 492 (OD492) is directly proportional to the number of the living cells attached to the beads. Calibration curves were used to transform the OD492 readings into cell number, […]

[5] = tested on: FF1; test: Toxicity assay for the peptides (MTS cell survival), FF1; assay type: cell-based, human
Protocol: as §5

[6] = FF1 monolayer, 6 mg peptide/ml Sepharose beads
[7] = FF1, FIG. 3a, peptide concentration not given
[8] = high concentrations (>100 μg/ml), 5 days
[9] = very high concentrations (>100 μg/ml), prolonged exposure (5 days)

## C-Fic-a-K: peptide having the sequence KGYKYSYKVSEMKVRPAK (SEQ ID NO: 4) (listed as Homo sapiens)
[1]; [6]
  cell binding (extent reached): 100%

## C-Fic: peptide having the sequence KGYNYSYKSEMKVRPA (SEQ ID NO: 1); subsequence of human ficolin (listed as Homo sapiens)
[2]
  cell binding activity at the lower dose (words): completely looses reactivity
[2]; listed as C-fic
  cell binding activity at the lower dose (words): did not attach; also recorded: some activity
[2]; BAEC, 6 mg peptide/ml, after 96 hours of incubation
  extent of cell binding: about 30%
[1]; FF1, 6 mg peptide/ml, after 96 hours of incubation
  extent of cell binding: about 30%
[1]; FF1 monolayer
  cell binding activity at the lower dose (words): no reactivity
[1]; FF1 monolayer, listed as C-fic
  cell binding activity at the lower dose (words): did not attach; also recorded: looses its activity; also recorded: inactive
[1]; FF1 monolayer, 12 mg peptide/ml, up to 150 hours
  cell binding (extent reached): 100%

## C-M-Fic2: peptide having the sequence KGYKYSYKGGWTVFQRRMDGSVDFYR (SEQ ID NO: 8) (listed as Homo sapiens)
[1]; [7]
  cell binding (extent reached): 100%
  kinetic profile of cell binding: good kinetic profile of cell binding (fast attachment)

## C-M-Fic2K: peptide having the sequence KGYKYSYKGGWTVFQRRMDGSVDFYRK (SEQ ID NO: 6) (listed as Homo sapiens)
[1]; [7]
  cell binding (extent reached): 100%
  kinetic profile of cell binding: good kinetic profile of cell binding (fast attachment)

## C-M-Fic-a-K: peptide having the sequence KGYKYSYKVSEMKFQRRMDGSVDFYRK (SEQ ID NO: 7) (listed as Homo sapiens)
[1]; FF1 monolayer, 6 mg peptide/ml
  rate / kinetics of cell binding compared with positive control PreC: accelerated the kinetics of cell binding

## C-M-Fic: peptide having the sequence KGYNYSYKVSEMKFQRRVDGSVDFYRK (SEQ ID NO: 3) (listed as Homo sapiens)
[3]; [8]
  cell survival, normalized to controls: about 50%
[3]; [9]
  toxicity: some minor toxicity
[2]
  cell binding activity at the lower dose (words): slower rate at the lower concentration
  overall activity at longer incubation times: also active
[2]; BAEC
  Nomarsky optics microscopy of peptide coated beads attached to BAEC (observation): formation of small tubes
[4]; listed as C-M-fic
  attachment of FF1 cells in suspension to coated sepharose beads over time (words): an increase in cell number is detected after the first day
[4]; listed as CM-fic
  attachment of FF1 cells in suspension to coated sepharose beads over time (words): stable for at least three days
[5]; [8]
  cell survival, normalized to controls: about 50%
[5]; [9]
  toxicity: some minor toxicity
[1]
  time to saturated attachment: 72 h
[1]; FF1
  Nomarsky optics microscopy of peptide coated beads attached to FF1 (observation): aggregates of cells and beads formed
[1]; FF1 monolayer, 6 mg peptide/ml
  time to reach 100% / saturated cell binding: 96 h
[1]; [6]
  cell binding (extent reached): 100%
[1]; FF1 monolayer
  cell binding activity at the lower dose (words): strongly affected by the decrease
[1]; FF1 monolayer, listed as C-M-fic
  cell binding activity at the lower dose (words): strongly affected by the lowerdose
[1]; FF1 monolayer, 6 mg peptide/ml, listed as C-M-fic
  time to reach 100% / saturated cell binding: ≤ 96 h
[1]; FF1 monolayer, 12 mg peptide/ml
  rate of cell binding compared to the lower concentration: slightly faster cell binding
[1]; FF1 monolayer, higher dose (12 mg/ml)
  time to reach 100% cell binding: 20 h

## M-Fic-K: peptide having the sequence GGWTVFQRRMDGSVDFYRK (SEQ ID NO: 5) (listed as Homo sapiens)
[1]; 6 mg peptide/ml
  activity in comparison with the positive control PreC-gamma: dramatic change in activity

## M-Fic: peptide having the sequence GGWTVFQRRVDGSVDFYRK (SEQ ID NO: 2) (listed as Homo sapiens)
[2]
  cell binding activity at the lower dose (words): slight decrease
  overall activity at longer incubation times: highest activity
[2]; BAEC
  Nomarsky optics microscopy of peptide coated beads attached to BAEC (observation): formation of small tubes
[1]
  time to saturated attachment: 72 h
[1]; FF1
  Nomarsky optics microscopy of peptide coated beads attached to FF1 (observation): aggregates of cells and beads formed
[1]; FF1 monolayer, 6 mg peptide/ml
  time to reach 100% / saturated cell binding: ≤ 24 h
[1]; FF1 monolayer
  cell binding activity at the lower dose (words): retains its activity
[1]; FF1 monolayer, listed as M-fic
  cell binding activity at the lower dose (words): retain most of its activity
[1]; 6 mg peptide/ml
  activity in comparison with the positive control PreC-gamma: initially inferior to the positive control

## PreC: positive control peptide KTRWYSMKKTTMKIIPFNR (SEQ ID NO: 10) (listed as Homo sapiens) [reference compound]
[1]; [6]
  cell binding (extent reached): 100%
